“And” between values parts separate entries of the source, which are not always exact repeats. Identical values can stand only once.
Tested on: sperm-egg fusion
Assay: sperm-egg fusion inhibition assay
Type: cell-based, guinea pig
Design: inhibits sperm-egg fusion / % Inhibition: concentration or dose not given beside the values
Method: The fusion inhibition assay was carried out as follows. Eggs were collected from guinea pig ovaries. The eggs were incubated in tissue culture medium overnight. The zona pellucida was removed with a mixture of proteases. The zona pellucida free eggs were incubated in culture media with peptide at a specified concentration for 30 minutes.
Sperm collected from the epididymis of male guinea pigs was capacitated by incubation and acrosome reacted as described by Fleming and Yanagimachi (Gamete Res. 4: 253-273 (1981)) and added to the eggs and incubated for 15 minutes. The eggs were then transferred to a sperm free culture medium and incubated for an additional 1 hour and 45 minutes. The eggs were then fixed and stained as described by Primakoff et al. (J. Cell. Biol. 104: 141 (1987)). The total number of swollen sperm heads were then counted. Swollen sperm heads are an indication that the sperm and egg have fused.
On the basis of these observations, several indices are calculated. The fertilization index (F.I.) is determined by dividing the total number of swollen heads by the total number of eggs. The fertilization rate (F.R.) is the percentage of eggs fertilized. The percent inhibition is determined by dividing the fertilization index of the experimental peptide by the fertilization index of the control peptide.

Q: For CSTDEC, which F.R. (Table 4, TDE peptides compared with no peptide control) is on record?
A: 8% and 11%

Q: And the “% Inhibition” value (Table 4, relative to F.I. of no peptide control of the same experiment)?
A: 89% and 95%

Q: And the “% Inhibition” value (Table 5, relative to F.I. of control peptide GRGES of the same experiment)?
A: 90% and 98%

Q: And the “inhibition of sperm-egg fusion (in words)” value (compared to no peptide or control peptide)?
A: strongly inhibited

Q: And the inhibits sperm-egg fusion (when the fertilization index is near the normal level of 1 sperm per egg, compared with no peptide (Table 4))?
A: 89%
